Molecular target: T1, AHA2 central loop (recombinant His-AHA2 central loop) (Arabidopsis thaliana, UniProt P19456)
T1 construct: cytosolic central loop domain only, His-tagged recombinant, fluorescently labelled with NanoTemper RED protein labelling kit
T1 sequence (P19456 292-643 limits assumed): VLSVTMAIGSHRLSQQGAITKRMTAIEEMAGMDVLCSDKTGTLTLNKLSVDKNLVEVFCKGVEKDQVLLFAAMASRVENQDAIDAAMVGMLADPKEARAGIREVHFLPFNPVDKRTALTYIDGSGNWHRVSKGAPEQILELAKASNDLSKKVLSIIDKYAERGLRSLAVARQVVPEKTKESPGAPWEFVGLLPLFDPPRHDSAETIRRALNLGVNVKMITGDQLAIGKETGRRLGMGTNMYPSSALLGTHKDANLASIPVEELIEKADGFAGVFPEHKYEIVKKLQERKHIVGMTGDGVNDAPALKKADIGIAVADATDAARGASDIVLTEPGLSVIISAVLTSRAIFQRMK
Assay: microscale thermophoresis
Format: binding

| Structure (SMILES) | Kd |
| --- | --- |
| O=C1NC(=S)S/C1=C\c1ccco1 [PS-1, (Z)-5-(furan-2-ylmethylene)-2-thioxothiazolidin-4-one] | 4880 ± 660 nM |
| O=C1NC(=S)S/C1=C\c1ccc[nH]1 [compound 27, (Z)-5-((1H-pyrrol-2-yl)methylene)-2-thioxothiazolidin-4-one] | 550 ± 50 nM |

Source: article PMC9597486, “Screening of protonstatin-1 (PS-1) analogs for improved inhibitors of plant plasma membrane H^+-ATPase activity” (Frontiers in Plant Science, 2022)
